Columns and labels:
[1] = target: T1, Receptor-type tyrosine-protein kinase FLT3 (Homo sapiens, UniProt P36888, ITD); assay: (§1) Inhibition of FLT3 ITD mutant autophosphorylation in human MV4-11 cells after 1 hr by immunoblot analysis; assay type: cell-based
[2] = system: Receptor-type tyrosine-protein kinase FLT3 (Homo sapiens), P36888 [UNDEFINED MUTATION]; assay: as §1; assay type: cell-based
[3] = target: Vascular endothelial growth factor receptor 2 (Homo sapiens, UniProt P35968); assay: Inhibition of KDR
Sequence of Vascular endothelial growth factor receptor 2 (P35968 whole entry): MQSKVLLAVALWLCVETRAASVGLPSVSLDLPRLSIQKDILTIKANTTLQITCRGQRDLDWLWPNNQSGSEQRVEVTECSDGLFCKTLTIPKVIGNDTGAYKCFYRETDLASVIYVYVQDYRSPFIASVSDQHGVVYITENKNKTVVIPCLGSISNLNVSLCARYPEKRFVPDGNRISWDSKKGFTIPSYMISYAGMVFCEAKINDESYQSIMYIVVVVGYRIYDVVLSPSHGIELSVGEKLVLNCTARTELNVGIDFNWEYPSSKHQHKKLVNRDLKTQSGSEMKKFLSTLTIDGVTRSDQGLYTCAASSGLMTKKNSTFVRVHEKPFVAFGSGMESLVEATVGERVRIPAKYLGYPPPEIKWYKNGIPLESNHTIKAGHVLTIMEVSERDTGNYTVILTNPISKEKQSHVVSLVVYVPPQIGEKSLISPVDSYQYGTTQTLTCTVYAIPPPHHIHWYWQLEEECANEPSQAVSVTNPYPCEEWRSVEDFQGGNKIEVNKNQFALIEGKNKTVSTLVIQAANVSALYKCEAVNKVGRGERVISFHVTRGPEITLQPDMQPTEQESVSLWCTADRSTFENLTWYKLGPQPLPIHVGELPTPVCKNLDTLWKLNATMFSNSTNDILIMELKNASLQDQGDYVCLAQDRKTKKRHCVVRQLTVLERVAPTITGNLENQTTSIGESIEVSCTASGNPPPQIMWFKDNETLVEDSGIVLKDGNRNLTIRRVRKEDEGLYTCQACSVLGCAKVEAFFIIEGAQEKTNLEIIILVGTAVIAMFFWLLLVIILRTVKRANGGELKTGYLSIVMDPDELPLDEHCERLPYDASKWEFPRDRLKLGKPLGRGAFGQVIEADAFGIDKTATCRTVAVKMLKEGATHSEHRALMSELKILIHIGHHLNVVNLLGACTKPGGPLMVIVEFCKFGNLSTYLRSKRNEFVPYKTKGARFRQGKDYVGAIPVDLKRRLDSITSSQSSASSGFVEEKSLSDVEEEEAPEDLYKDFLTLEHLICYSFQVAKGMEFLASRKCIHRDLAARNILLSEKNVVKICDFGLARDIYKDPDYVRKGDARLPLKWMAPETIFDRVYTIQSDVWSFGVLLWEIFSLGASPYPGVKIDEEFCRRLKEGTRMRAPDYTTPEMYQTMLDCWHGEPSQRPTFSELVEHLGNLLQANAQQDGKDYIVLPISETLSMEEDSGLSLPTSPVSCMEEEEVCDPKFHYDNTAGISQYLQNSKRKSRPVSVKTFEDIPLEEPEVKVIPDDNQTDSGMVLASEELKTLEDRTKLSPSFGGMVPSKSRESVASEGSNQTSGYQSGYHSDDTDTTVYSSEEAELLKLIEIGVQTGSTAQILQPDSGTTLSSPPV

Mus musculus [4] = assay: Plasma concentration at steady state in BALB/c mouse xenografted with BA/F3 cells expressing FLT3-ITD mutant at 0.05 mg/kg, po qd; assay type: ADME, organism-based, BaF3; design: dose 0.05 mg/kg, route oral; settings: in vivo
TF-1 [5] = assay: cells; settings: Homo sapiens, TF-1, 72 h
Description: Cytotoxicity against human TF1 cells expressing PDGFR-beta assessed as cell viability after 72 hrs by resazurin dye based fluorescence assay

[6] = target: T1, Receptor-type tyrosine-protein kinase FLT3; assay: Inhibition of FLT3 ITD mutant mediated ERK 1/2 phosphorylation in human MV4-11 cells by immunoblot analysis; assay type: cell-based
cells [7] = settings: Homo sapiens, Leukemia cell, 72 h
Description: Cytotoxicity against human primary leukemia cells isolated from acute myeloid leukemia patient expressing FLT3-D835Y mutation assessed as cell viability after 72 hrs by luciferase assay

TF-1 [8] = assay: cells; settings: Homo sapiens, TF-1, 72 h; remark: listed apart in the source
Description: Cytotoxicity against human TF1 cells assessed as cell viability after 72 hrs by resazurin dye based fluorescence assay

Mus musculus [9] = assay: Plasma concentration at steady state in BALB/c mouse xenografted with BA/F3 cells expressing FLT3-ITD mutant at 0.25 mg/kg, po qd; assay type: ADME, organism-based, BaF3; design: dose 0.25 mg/kg, route oral; settings: in vivo
Mus musculus [10] = assay: Plasma concentration at steady state in BALB/c mouse xenografted with BA/F3 cells expressing FLT3-ITD mutant at 5 mg/kg, po qd; assay type: ADME, organism-based, BaF3; design: dose 5 mg/kg, route oral; settings: in vivo
MV4-11 [11] = assay: Induction of apoptosis in human MV4-11 cells at 100 nM assessed as prenecrotic cells after 24 hrs by annexin V and propidium iodide staining method (reference value: 90.3 %); assay type: functional
BaF3 [12] = assay: Antitumor activity against mouse BA/F3 cells expressing FLT3-ITD mutant xenografted in BALB/c mouse myeloproliferative model assessed as increase in host survival days at 0.25 mg/kg, po qd relative to control (reference value: 20 days); assay type: functional, organism-based; design: dose 0.25 mg/kg
[13] = target: T2, Receptor-type tyrosine-protein kinase FLT3 (Homo sapiens, UniProt P36888); assay: Inhibition of human recombinant FLT3 by radiometric assay
T2 sequence (P36888 whole entry): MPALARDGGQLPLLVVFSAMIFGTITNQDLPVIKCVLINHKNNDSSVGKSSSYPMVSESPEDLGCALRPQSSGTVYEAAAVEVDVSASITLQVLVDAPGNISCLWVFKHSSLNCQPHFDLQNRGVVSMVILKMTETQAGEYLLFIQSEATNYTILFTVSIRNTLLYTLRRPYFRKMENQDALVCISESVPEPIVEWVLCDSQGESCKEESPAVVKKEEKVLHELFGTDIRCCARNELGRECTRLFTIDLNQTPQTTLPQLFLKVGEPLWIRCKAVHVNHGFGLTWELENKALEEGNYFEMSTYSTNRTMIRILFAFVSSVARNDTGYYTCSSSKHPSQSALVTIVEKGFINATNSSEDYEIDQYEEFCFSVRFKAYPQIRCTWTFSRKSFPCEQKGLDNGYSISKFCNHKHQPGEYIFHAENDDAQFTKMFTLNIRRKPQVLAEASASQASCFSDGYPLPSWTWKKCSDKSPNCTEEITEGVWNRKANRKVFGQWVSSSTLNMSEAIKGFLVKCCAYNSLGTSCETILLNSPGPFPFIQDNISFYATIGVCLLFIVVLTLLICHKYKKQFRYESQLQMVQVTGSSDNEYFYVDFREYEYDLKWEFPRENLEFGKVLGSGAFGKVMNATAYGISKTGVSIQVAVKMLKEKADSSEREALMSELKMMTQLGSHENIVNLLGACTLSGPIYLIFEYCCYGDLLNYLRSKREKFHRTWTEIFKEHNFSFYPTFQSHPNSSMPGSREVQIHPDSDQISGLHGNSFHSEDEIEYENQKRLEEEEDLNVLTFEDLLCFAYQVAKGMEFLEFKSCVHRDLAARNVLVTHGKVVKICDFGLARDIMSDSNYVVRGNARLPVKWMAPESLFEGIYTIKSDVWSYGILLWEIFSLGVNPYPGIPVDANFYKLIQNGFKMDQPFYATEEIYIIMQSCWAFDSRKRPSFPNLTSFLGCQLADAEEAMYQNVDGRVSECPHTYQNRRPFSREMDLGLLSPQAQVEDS

[14] = target: T3, Mast/stem cell growth factor receptor Kit (Homo sapiens, UniProt P10721); assay: Inhibition of human recombinant c-Kit by radiometric assay
T3 sequence (P10721 whole entry): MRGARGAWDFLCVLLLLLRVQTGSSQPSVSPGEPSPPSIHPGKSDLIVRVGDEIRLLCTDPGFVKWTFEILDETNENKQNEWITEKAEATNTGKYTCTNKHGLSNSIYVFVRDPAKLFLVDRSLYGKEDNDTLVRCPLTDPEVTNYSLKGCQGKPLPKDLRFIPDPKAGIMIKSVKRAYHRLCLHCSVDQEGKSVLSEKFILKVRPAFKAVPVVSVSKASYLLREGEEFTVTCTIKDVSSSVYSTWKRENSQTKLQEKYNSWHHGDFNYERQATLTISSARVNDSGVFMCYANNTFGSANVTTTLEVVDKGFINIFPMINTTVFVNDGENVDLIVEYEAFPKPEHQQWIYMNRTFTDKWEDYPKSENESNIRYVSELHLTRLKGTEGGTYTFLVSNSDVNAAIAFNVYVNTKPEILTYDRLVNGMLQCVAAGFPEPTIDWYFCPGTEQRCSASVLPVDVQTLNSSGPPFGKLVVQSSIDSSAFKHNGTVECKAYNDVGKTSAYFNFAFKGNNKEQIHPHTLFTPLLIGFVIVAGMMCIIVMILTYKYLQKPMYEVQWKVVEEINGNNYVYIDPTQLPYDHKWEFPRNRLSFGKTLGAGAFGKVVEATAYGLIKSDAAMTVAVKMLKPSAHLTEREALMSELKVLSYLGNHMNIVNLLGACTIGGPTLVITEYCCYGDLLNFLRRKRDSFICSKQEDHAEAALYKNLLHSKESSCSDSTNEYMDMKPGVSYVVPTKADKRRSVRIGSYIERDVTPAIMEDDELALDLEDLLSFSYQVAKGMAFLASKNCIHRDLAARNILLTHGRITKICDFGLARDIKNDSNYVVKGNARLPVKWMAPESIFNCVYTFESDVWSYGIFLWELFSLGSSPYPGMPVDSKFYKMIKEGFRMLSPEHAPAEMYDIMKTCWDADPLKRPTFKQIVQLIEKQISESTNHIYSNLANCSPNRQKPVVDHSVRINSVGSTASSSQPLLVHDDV

Kasumi 1 = assay: cells; settings: Homo sapiens, Kasumi 1, 72 h
Description: Cytotoxicity against human Kasumi-1 cells expressing c-KIT assessed as cell viability after 72 hrs by resazurin dye based fluorescence assay

BaF3 [15] = assay: Antitumor activity against mouse BA/F3 cells expressing FLT3-ITD mutant xenografted in BALB/c mouse myeloproliferative model assessed as increase in host survival days at 1 mg/kg, po qd relative to control (reference value: 20 days); assay type: functional, organism-based; design: dose 1 mg/kg
MV4-11 [16] = assay: Induction of apoptosis in human MV4-11 cells at 100 nM assessed as apoptotic cells after 24 hrs by annexin V and propidium iodide staining method (reference value: […]); assay type: functional
[17] = Half life in BALB/c mouse; assay type: ADME, organism-based; settings: in vivo
TF-1 [18] = assay: cells; settings: Homo sapiens, TF-1, 72 h; remark: listed apart in the source
Description: Cytotoxicity against human TF1 cells expressing wild type c-KIT assessed as cell viability after 72 hrs by resazurin dye based fluorescence assay

[19] = target: Proto-oncogene tyrosine-protein kinase Src (Homo sapiens, UniProt P12931); assay: Inhibition of Src
Sequence of Proto-oncogene tyrosine-protein kinase Src (P12931 2-536 limits assumed): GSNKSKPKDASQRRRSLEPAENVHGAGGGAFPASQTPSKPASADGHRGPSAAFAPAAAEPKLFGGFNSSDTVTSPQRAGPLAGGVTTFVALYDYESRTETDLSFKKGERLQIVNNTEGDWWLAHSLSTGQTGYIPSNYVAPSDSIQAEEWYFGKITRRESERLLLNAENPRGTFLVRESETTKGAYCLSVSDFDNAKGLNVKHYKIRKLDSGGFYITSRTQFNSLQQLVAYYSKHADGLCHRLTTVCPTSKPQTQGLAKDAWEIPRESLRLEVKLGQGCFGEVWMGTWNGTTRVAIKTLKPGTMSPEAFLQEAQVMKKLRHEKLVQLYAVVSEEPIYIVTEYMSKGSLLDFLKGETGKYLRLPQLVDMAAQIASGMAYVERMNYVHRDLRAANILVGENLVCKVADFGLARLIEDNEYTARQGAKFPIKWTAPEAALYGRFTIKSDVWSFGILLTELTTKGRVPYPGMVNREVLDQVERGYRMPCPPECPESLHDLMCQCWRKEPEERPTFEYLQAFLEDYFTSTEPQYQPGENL

BaF3 [20] = assay: Antitumor activity against mouse BA/F3 cells expressing FLT3-ITD mutant xenografted in BALB/c mouse myeloproliferative model assessed as increase in host survival days administered by oral gavage qd relative to control; assay type: functional
Leukemia cell = assay: Cytotoxicity against human primary leukemia cells isolated from acute myeloid leukemia patient expressing wild type FLT3 assessed as cell viability at 0.0005 to 10 uM after 72 hrs by luciferase assay; assay type: functional, cell-based
Mus musculus [21] = assay: Plasma concentration at steady state in BALB/c mouse xenografted with BA/F3 cells expressing FLT3-ITD mutant at 1 mg/kg, po qd; assay type: ADME, organism-based, BaF3; design: dose 1 mg/kg, route oral; settings: in vivo
cells [22] = settings: Homo sapiens, Leukemia cell, 72 h; remark: listed apart in the source
Description: Cytotoxicity against human primary leukemia cells isolated from acute myeloid leukemia patient expressing FLT3-ITD mutation assessed as cell viability after 72 hrs by luciferase assay

MV4-11 [23] = assay: Induction of apoptosis in human MV4-11 cells at 100 nM assessed as prenecrotic cells after 48 hrs by annexin V and propidium iodide staining method (reference value: 91.8 %); assay type: functional
[24] = target: T3, Mast/stem cell growth factor receptor Kit; assay: Inhibition of SCF-induced phosphorylation of c-KIT in human TF1 cells after 1 hr by immunoblot analysis; assay type: cell-based, TF-1
[25] = target: Hepatocyte growth factor receptor (Homo sapiens, UniProt P08581); assay: Inhibition of cMET
Sequence of Hepatocyte growth factor receptor (P08581 whole entry): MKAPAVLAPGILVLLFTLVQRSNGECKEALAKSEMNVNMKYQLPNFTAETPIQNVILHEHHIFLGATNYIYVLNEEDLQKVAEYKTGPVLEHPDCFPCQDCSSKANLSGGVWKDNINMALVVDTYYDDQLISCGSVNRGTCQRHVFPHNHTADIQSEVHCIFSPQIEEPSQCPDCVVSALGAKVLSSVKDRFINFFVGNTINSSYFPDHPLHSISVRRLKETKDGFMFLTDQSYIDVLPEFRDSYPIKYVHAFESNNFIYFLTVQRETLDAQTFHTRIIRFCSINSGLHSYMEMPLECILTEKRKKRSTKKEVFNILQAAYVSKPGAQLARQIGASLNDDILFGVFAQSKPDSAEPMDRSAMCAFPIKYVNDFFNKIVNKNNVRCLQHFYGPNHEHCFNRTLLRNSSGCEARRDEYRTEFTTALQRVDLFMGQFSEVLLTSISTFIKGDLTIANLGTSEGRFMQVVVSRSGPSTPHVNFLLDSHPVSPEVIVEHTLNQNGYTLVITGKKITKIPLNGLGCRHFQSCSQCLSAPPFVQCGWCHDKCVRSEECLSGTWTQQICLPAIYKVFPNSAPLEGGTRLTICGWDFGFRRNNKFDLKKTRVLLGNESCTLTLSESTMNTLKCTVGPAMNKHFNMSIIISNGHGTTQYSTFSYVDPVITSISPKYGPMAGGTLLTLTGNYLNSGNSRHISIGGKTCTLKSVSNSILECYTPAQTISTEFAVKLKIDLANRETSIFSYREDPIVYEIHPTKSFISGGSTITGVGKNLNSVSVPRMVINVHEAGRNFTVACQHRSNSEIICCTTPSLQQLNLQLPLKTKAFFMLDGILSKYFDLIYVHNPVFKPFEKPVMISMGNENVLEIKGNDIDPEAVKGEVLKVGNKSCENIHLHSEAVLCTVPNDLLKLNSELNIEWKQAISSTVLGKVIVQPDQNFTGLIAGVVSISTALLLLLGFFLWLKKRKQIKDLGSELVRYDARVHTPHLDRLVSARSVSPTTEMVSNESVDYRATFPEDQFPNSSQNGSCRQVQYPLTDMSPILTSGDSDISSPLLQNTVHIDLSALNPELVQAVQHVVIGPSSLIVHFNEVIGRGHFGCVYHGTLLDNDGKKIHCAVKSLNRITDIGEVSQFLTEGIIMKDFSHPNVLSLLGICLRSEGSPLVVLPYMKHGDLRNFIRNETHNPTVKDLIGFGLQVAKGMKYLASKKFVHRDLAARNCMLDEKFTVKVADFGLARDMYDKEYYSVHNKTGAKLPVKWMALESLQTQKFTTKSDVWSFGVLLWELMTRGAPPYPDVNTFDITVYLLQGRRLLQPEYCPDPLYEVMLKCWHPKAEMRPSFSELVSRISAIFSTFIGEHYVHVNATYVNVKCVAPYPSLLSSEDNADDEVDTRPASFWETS

[26] = Oral bioavailability in BALB/c mouse; assay type: ADME, organism-based; settings: in vivo

With `Nc1nc(Nc2ccc([C@H]3CC[C@H](N4CCOCC4)CC3)cc2)nn1-c1ccccn1` the IC50 [1] was 0.4 nM, the inhibition [2] was “Dose-dependent effect” and the Ki [3] was 85 nM. For the same compound, the Cpss (Mus musculus [4]) was 4 ng/mL, the IC50 (TF-1 [5]) was 330 nM and the IC50 [6] was 1.3 nM. The IC50 (cells [7]) was 220 nM, the IC50 (TF-1 [8]) was > 4000 nM and the Cpss (Mus musculus [9]) was 22 ng/mL. It also gave a Cpss (Mus musculus [10]) of 641 ng/mL, an Activity (MV4-11 [11]) of 54.5% and an MSD (BaF3 [12]) of 25 days. The Ki [13] was 0.17 nM, the Ki [14] was < 1 nM and the IC50 (Kasumi 1) was 30 nM. It also gave an MSD (BaF3 [15]) of 34 days, an Activity (MV4-11 [16]) of 8.4% and a half-life [17] of 15 h. For the same compound, the IC50 (TF-1 [18]) was 1.6 nM, the Ki [19] was 770 nM and the Activity (BaF3 [20]) was “Dose-dependent effect”. The Activity (Leukemia cell) was > 80%, the Cpss (Mus musculus [21]) was 91 ng/mL and the IC50 (cells [22]) was 12 nM. For the same compound, the Activity (MV4-11 [23]) was 28.5%, the IC50 [24] was 4 nM and the inhibition ([24]; TF-1) was “Dose-dependent effect”. The Ki [25] was 130 nM and the bioavailability [26] was 100%.
